Assay results from patent US9976141B2, “Compositions and methods for inhibiting gene expression of Hif2alpha” (Arrowhead Madison Inc., priority 2015, dated 2018).

System: human (tumor) Hif2α (EPAS1) mRNA
Assay: Hif2α knockdown in orthotopic RCC tumor bearing mice, single injection of RNAi trigger-delivery polymer conjugate, RT-qPCR (Table 7)
Assay type: in vivo
Settings: single tail vein injection, relative to isotonic glucose
Procedure, shortened: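 Female athymic nude mice carried orthotopic A498-SEAP ccRCC kidney tumours, used 5–6 weeks after implantation. They received one tail-vein injection of RGD-targeted Hif2α RNAi trigger–polymer conjugate or isotonic glucose. Tumour Hif2α mRNA was measured by TaqMan RT-qPCR normalised to CycA (ΔΔCT) and expressed relative to glucose-treated mice.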

[1] = RNAi trigger 50 μg, polymer 064 125 μg
[2] = RNAi trigger 80 μg, polymer 126 400 μg

| Substance | Relative Expression day 4 (Hif2α mRNA in kidney tumor) [2] | also measured |
| --- | --- | --- |
| AD02857 (antisense UUUCAUGAAAUCGUUACGUUG; sense ACGUAACGAUUUCAUGAAAT; Hif2alpha RNAi agent antisense strand; modified_base 2,4,6,8,10,14 /mod_base = “2′-deoxy-2′-fluoro corresponding nucleoside”; modified_base 1,3,5,7,9,11,12,13,15,16,17,18,19,20,21 /mod_base = “2′-O-methyl corresponding nucleoside”; modified_base 2,3,20,21 /mod_base = “5′-phosphorothioate corresponding nucleotide”; Hif2alpha RNAi agent sense strand; modified_base 7,8,9 /mod_base = “2′-deoxy-2′-fluoro corresponding nucleoside”; modified_base 1,2,3,4,5,6,10,11,12,13,14,15,16,17,18,19 /mod_base = “2′-O-methyl corresponding nucleoside”; modified_base 20 /mod_base = “3′-3′-linked nucleotide”; modi) | – | Relative Expression day 4 (Hif2α mRNA in kidney tumor) [1]: 0.192 |
| AD01024 (antisense TCUAGCAACAAAACCUUAATT; sense UUAAGGUUUUGUUGCUAGAT; Hif2alpha RNAi agent antisense strand; modified_base 2,4,6,8,10,12,14,16,18 /mod_base = “2′-deoxy-2′-fluoro corresponding nucleoside”; modified_base 3,5,9,11,13,15,17,19 /mod_base = “2′-O-methyl corresponding nucleoside”; modified_base 7 /mod_base = “2′-3′ seco corresponding nucleotide”; modified_base 21 /mod_base = “5′-phosphorothioate corresponding nucleotide”; Hif2alpha RNAi agent sense strand; modified_base 1,3,5,7,9,11,13,15,17,19 /mod_base = “2′-deoxy-2′-fluoro corresponding nucleoside”; modified_base 2,4,6,8,10,12,14,16,18 /mod_base = “2′-O-methyl corresponding nucleoside”; modified_b) | 0.51 | – |
| AD01410 (antisense TUUCAUGAAAUCGUUACGUCGGCUAU; sense UAUAUCGACGUAACGAUUUCAUGAAA; Hif2alpha RNAi agent antisense strand; modified_base 25 modified base = “2′-hydroxy corresponding nucleoside”; modified_base 2,4,6,8,10,12,14,16,18,20 /mod_base = “2′-deoxy-2′-fluoro corresponding nucleoside”; modified_base 3,5,7,11,13,15,17,19,21,22,23,24,26 /mod_base = “2′-O-methyl corresponding nucleoside”; modified_base 9 /mod_base = “2′-3′ seco corresponding nucleotide”; modified_base 2,24 /m; Hif2alpha RNAi agent sense strand; modified_base 2,4 modified base = “2′-hydroxy corresponding nucleoside”; modified_base 6,8,10,12,14,16,18,20,22,24,26 /mod_base = “2′-deoxy-2′-fluoro correspondi) | – | Relative Expression day 4 (Hif2α mRNA in kidney tumor) (RNAi trigger 150 μg, polymer 100A 300 μg): 0.41 |
| AD01029 (antisense TUUCAUGAAAUCGUUACGUTT; sense ACGUAACGAUUUCAUGAAAT; Hif2alpha RNAi agent antisense strand; modified_base 2,4,8,10,12,14,16,18 /mod_base = “2′-deoxy-2′-fluoro corresponding nucleoside”; modified_base 3,5,7,9,11,13,15,17,19 /mod_base = “2′-O-methyl corresponding nucleoside”; modified_base 6 /mod_base = “2′-3′ seco corresponding nucleotide”; modified_base 21 /mod_base = “5′-phosphorothioate corresponding nucleotide”; Hif2alpha RNAi agent sense strand; modified_base 1,3,5,7,9,11,13,15,17,19 /mod_base = “2′-deoxy-2′-fluoro corresponding nucleoside”; modified_base 2,4,6,8,10,12,14,16,18 /mod_base = “2′-O-methyl corresponding nucleoside”; modified_b) | 0.94 | – |
| AD01289 (antisense TUUCAUGAAAUCGUUACGUTT; sense ACGUAACGAUUUCAUGAAAT; Hif2alpha RNAi agent antisense strand; modified_base 2,4,6,8,10,12,14,16,18 /mod_base = “2′-deoxy-2′-fluoro corresponding nucleoside”; modified_base 3,5,7,9,11,13,15,17,19 /mod_base = “2′-O-methyl corresponding nucleoside”; modified_base 21 /mod_base = “5′-phosphorothioate corresponding nucleotide”; Hif2alpha RNAi agent sense strand; modified_base 1,3,5,6,7,9,11,13,15,17,19 /mod_base = “2′-deoxy-2′-fluoro corresponding nucleoside”; modified_base 2,4,8,10,12,14,16,18 /mod_base = “2′-O-methyl corresponding nucleoside”; modified_base 20 /mod_base = “3′-3′-linked nucleotide”; modified_base 1 /mo) | – | Relative Expression day 4 (Hif2α mRNA in kidney tumor) (RNAi trigger 115 μg, polymer 100A 375 μg): 0.28 |
| AD01292 (antisense TUUCAUGAAAUCGUUACGUUGGC; sense CAACGUAACGAUUUCAUGAAA; Hif2alpha RNAi agent antisense strand; modified_base 2,4,6,8,10,14,16,18,20 /mod_base = “2′-deoxy-2′-fluoro corresponding nucleoside”; modified_base 3,5,7,9,11,12,13,15,17,19,21,22,23 /mod_base = “2′-O-methyl corresponding nucleoside”; modified_base 2,3,22,23 /mod_base = “5′-phosphorothioate corresponding nucleotide”; Hif2alpha RNAi agent sense strand; modified_base 3,5,7,9,10,11,13,15,17,19,21 /mod_base = “2′-deoxy-2′-fluoro corresponding nucleoside”; modified_base 2,4,6,8,12,14,16,18,20 /mod_base = “2′-O-methyl corresponding nucleoside”; modified_base 1 /mod_base = “2′-3′ seco correspondin) | 0.27 | – |
| AD03266 (antisense UUUCAUGAAAUCGUUACGUUG; sense ACGUAACGAUUUCAUGAAAT; Hif2alpha RNAi agent antisense strand; modified_base 2,4,6,8,14 /mod_base = “2′-deoxy-2′-fluoro corresponding nucleoside”; modified_base 1,3,5,7,9,10,11,12,13,15,16,17,18,19,20,21 /mod_base = “2′-O-methyl corresponding nucleoside”; modified_base 2,3,20,21 /mod_base = “5′-phosphorothioate corresponding nucleotide”; Hif2alpha RNAi agent sense strand; modified_base 7,8,9 /mod_base = “2′-deoxy-2′-fluoro corresponding nucleoside”; modified_base 1,2,3,4,5,6,10,11,12,13,14,15,16,17,18,19 /mod_base = “2′-O-methyl corresponding nucleoside”; modified_base 20 /mod_base = “3′-3′-linked nucleotide”; modi) | – | Relative Expression day 4 (Hif2α mRNA in kidney tumor) [1]: 0.408 |
| AD01033 (antisense TAAGUUAAGCUCCCAUACATT; sense UGUAUGGGAGCUUAACUUAT; Hif2alpha RNAi agent antisense strand; modified_base 2,4,6,8,10,12,14,16,18 /mod_base = “2′-deoxy-2′-fluoro corresponding nucleoside”; modified_base 3,5,9,11,13,15,17,19 /mod_base = “2′-O-methyl corresponding nucleoside”; modified_base 7 /mod_base = “2′-3′ seco corresponding nucleotide”; modified_base 21 /mod_base = “5′-phosphorothioate corresponding nucleotide”; Hif2alpha RNAi agent sense strand; modified_base 1,3,5,7,9,11,13,15,17,19 /mod_base = “2′-deoxy-2′-fluoro corresponding nucleoside”; modified_base 2,4,6,8,10,12,14,16,18 /mod_base = “2′-O-methyl corresponding nucleoside”; modified_b) | 1.08 | – |
| AD01026 (antisense TAAAUCGUUACGUUGACAGTT; sense CUGUCAACGUAACGAUUUAT; Hif2alpha RNAi agent antisense strand; modified_base 2,4,8,10,12,14,16,18 /mod_base = “2′-deoxy-2′-fluoro corresponding nucleoside”; modified_base 3,5,7,9,11,13,15,17,19 /mod_base = “2′-O-methyl corresponding nucleoside”; modified_base 6 /mod_base = “2′-3′ seco corresponding nucleotide”; modified_base 21 /mod_base = “5′-phosphorothioate corresponding nucleotide”; Hif2alpha RNAi agent sense strand; modified_base 1,3,5,7,9,11,13,15,17,19 /mod_base = “2′-deoxy-2′-fluoro corresponding nucleoside”; modified_base 2,4,6,8,10,12,14,16,18 /mod_base = “2′-O-methyl corresponding nucleoside”; modified_b) | 0.97 | – |
